ChEMBL document CHEMBL5370619, “Targeting the Tyrosine Kinase 2 (TYK2) Pseudokinase Domain: Discovery of the Selective TYK2 Inhibitor ABBV-712” (J Med Chem, 2023)
Converted amounts (≈) assume the structure as drawn.

What was measured:
[1] = target: Tyrosine-protein kinase JAK1 (Homo sapiens, UniProt P23458); experiment: Inhibition of JAK1 in human TF-1 cells assessed as reduction in IL-6 induced STAT3 phosphorylation at Tyr705 residue preincubated for 30 mins followed by IL-6 stimulation and measured after 30 mins by AlphaScreen assay; type: cell-based
[2] = Metabolic stability in human hepatocytes assessed as intrinsic clearance for unbound fraction of drug; type: ADME, cell-based, Hepatocyte
[3] = Thermodynamic solubility in PBS at pH 7.4; type: physicochemical; details: read-out: Therm_solubility
CYP3A4 = CYP3A4 (Homo sapiens, UniProt P08684); experiment: Induction of CYP3A4 in human hepatocytes assessed as fold increase in mRNA level at 10 uM incubated for 24 hrs by RT-qPCR analysis relative to control; type: ADME, cell-based, Hepatocyte; details: read-out: FC
[4] = Half life in rat at 1 mg/kg, iv or 1 mg/kg,po; type: ADME, organism-based; details: in vivo
[5] = Oral bioavailability in rat at 1 mg/kg; type: ADME, organism-based; details: in vivo
[6] = Metabolic stability in dog hepatocytes assessed as intrinsic clearance for unbound fraction of drug; type: ADME, cell-based, Canis lupus familiaris, Hepatocyte
[7] = Half life in dog at 1 mg/kg, iv; type: ADME, organism-based, Canis lupus familiaris; details: in vivo
[8] = Half life in cynomolgus monkey at 1 mg/kg, iv; type: ADME, organism-based, Macaca fascicularis; details: in vivo
[9] = AUC (0 to infinity) in cynomolgus monkey at 1 mg/kg,po; type: ADME, organism-based, Macaca fascicularis; design: dose 1 mg/kg, route po; details: in vivo
[10] = target: Non-receptor tyrosine-protein kinase TYK2 (Homo sapiens, UniProt P29597); experiment: Inhibition of TYK2 in human whole blood assessed as decrease in STAT4 phosphorylation preincubated for 30 mins followed by human IL-23 stimulation and measured after 20 mins by flow cytometry; type: tissue-based
[11] = In vivo inhibition of TYK2 in IL-12/IL-18 induced C57/B6 mouse model assessed as reduction in serum IFN-gamma production at 30 mg/kg,po pretreated for 30 mins prior to IL-12/IL-18 challenge and measured after 4 hrs by MSD assay; type: functional; details: C57/B6, 4.5 h, time 270 min
[12] = In vivo inhibition of TYK2 in IL-12/IL-18 induced C57/B6 mouse model assessed as reduction in serum IFN-gamma production at 300 mg/kg,po pretreated for 30 mins prior to IL-12/IL-18 challenge and measured after 4 hrs by MSD assay; type: functional; details: C57/B6, 4.5 h, time 270 min
[13] = In vivo inhibition of TYK2 in IL-12/IL-18 induced C57/B6 mouse model assessed as reduction in serum IFN-gamma production at 600 mg/kg,po pretreated for 30 mins prior to IL-12/IL-18 challenge and measured after 4 hrs by MSD assay; type: functional; details: C57/B6, 4.5 h, time 270 min
Mus musculus [14] = experiment: Anti-inflammatory activity in B10.RII mouse model of mouse IL-23 mini circle induced psoriasiform dermatitis assessed as decrease in ear thickness at 30 mg/kg,po BID for 5 days by caliper analysis; type: functional; design: scale not given: the % may be the effect or the level left; details: time 5 day
Mus musculus [15] = experiment: Anti-inflammatory activity in B10.RII mouse model of mouse IL-23 mini circle induced psoriasiform dermatitis assessed as decrease in ear thickness at 100 mg/kg,po QD for 5 days by caliper analysis; type: functional; design: scale not given: the % may be the effect or the level left; details: time 5 day

Sequence of Tyrosine-protein kinase JAK1 (P23458 whole entry): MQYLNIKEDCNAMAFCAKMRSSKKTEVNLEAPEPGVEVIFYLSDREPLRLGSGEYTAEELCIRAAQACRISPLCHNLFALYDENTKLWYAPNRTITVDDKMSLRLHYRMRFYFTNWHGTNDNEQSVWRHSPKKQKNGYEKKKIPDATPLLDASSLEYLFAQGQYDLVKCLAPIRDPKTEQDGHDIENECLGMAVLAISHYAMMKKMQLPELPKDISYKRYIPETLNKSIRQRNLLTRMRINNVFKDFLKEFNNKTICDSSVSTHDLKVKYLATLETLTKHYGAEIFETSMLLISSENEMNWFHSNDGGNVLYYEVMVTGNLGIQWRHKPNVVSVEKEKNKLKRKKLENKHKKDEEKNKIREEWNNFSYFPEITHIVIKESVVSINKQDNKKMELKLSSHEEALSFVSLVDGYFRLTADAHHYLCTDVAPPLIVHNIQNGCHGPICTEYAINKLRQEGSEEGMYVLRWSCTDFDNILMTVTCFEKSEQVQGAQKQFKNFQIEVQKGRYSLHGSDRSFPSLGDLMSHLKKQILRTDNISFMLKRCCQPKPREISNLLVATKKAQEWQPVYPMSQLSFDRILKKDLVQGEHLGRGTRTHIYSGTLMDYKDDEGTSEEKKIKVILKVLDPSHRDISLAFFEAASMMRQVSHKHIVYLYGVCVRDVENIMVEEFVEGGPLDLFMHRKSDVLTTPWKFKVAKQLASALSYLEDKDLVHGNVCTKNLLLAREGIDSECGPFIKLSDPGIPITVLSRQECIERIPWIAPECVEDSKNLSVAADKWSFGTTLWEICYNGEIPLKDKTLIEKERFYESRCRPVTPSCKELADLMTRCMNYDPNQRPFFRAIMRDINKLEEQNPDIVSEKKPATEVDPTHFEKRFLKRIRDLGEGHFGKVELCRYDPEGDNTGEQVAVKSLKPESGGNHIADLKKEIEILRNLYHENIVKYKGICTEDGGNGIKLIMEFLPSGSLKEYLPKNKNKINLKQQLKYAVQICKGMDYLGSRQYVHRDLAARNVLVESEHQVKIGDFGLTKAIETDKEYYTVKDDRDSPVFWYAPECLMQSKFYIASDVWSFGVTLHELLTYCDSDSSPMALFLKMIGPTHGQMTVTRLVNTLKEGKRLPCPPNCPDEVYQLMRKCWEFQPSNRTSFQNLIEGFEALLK
Sequence of Non-receptor tyrosine-protein kinase TYK2 (P29597 whole entry): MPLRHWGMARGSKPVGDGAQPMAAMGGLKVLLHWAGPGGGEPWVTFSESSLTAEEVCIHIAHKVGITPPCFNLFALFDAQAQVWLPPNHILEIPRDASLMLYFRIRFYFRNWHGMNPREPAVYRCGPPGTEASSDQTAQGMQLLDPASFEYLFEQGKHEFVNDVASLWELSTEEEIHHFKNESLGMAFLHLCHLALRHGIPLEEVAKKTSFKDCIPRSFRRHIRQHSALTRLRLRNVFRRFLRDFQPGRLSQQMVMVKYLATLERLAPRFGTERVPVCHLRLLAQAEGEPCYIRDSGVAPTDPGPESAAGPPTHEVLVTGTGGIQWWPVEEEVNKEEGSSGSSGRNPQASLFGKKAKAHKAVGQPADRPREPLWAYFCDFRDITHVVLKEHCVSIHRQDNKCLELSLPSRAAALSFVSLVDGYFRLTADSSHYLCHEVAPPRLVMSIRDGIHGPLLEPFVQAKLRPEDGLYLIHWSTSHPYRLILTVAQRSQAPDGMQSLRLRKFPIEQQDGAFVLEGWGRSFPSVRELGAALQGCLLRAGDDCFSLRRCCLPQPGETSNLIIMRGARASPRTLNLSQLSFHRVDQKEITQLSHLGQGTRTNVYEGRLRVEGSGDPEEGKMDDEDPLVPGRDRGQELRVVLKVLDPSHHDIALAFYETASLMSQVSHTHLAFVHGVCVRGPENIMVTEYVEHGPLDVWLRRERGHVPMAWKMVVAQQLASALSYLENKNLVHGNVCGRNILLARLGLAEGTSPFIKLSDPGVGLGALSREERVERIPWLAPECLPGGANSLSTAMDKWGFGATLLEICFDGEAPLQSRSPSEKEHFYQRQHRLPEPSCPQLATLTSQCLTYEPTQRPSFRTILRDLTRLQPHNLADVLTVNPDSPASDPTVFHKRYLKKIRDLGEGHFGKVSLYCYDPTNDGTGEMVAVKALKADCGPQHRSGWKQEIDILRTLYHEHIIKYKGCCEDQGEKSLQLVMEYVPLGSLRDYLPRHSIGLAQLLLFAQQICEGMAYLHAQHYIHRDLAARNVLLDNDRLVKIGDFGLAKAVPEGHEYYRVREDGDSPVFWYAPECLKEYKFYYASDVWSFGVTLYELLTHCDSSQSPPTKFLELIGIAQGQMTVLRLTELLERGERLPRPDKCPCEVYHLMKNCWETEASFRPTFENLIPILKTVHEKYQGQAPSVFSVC
Sequence of CYP3A4 (P08684 whole entry): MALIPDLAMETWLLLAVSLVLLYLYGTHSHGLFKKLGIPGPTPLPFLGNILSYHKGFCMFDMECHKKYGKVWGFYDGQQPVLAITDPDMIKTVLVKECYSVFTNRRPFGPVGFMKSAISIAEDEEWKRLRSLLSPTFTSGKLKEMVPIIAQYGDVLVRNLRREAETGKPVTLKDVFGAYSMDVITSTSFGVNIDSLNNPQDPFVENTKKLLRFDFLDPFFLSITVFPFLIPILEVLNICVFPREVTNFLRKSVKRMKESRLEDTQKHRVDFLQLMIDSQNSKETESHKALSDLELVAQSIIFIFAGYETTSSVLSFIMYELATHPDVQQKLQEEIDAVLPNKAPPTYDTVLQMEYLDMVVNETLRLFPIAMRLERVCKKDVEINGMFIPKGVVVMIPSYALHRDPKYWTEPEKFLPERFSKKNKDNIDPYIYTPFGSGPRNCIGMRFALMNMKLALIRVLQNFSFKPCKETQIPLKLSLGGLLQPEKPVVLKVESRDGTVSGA

For COCc1cc(-c2cn(C3COC3)c3cnc(NC(C)=O)cc23)nc([C@]2(OC)CCOC2)c1, the EC50 [1] was greater than 20000 nM, the CL free [2] was 31.7 mL/min/kg and the solubility thermodynamic [3] was 708 µM (≈ 320 µg/mL). For the same compound, the fold induction at 24 h, 10 µM (CYP3A4) was 1.5, the half-life [4] was 0.6 h and the bioavailability [5] was 19%. The CL free [6] was 21.7 mL/min/kg, the half-life [7] was 4.5 h and the half-life [8] was 1.2 h. For the same compound, the AUC(0-inf) [9] was 80 ng·h/mL, the EC50 [10] was 160 nM and the inhibition in vivo at 30 mg/kg [11] was 77%. The inhibition in vivo at 300 mg/kg [12] was 95%, the inhibition in vivo at 600 mg/kg [13] was 99% and the Activity (Mus musculus [14]) was 51%. The Activity (Mus musculus [15]) was 58%.
